Assay results published in patent EP4745132A1 (Technoderma Medicines Inc., priority 2023, dated 2025).

Columns and labels:
[1] = biological target: T1, NUAK1 (Homo sapiens, UniProt O60285); test: Enzyme activity inhibition test, kinase activity assay based on P81 filter paper binding hot-spot technique; type: biochemical; settings: final concentration of NUAK1 10 nM; 20 µM CHKtide peptide substrate; 33P-labeled ATP; 2 hours at room temperature; read-out: IC50 (nM) of Test Compounds against NUAK1
T1 sequence (O60285 1-661): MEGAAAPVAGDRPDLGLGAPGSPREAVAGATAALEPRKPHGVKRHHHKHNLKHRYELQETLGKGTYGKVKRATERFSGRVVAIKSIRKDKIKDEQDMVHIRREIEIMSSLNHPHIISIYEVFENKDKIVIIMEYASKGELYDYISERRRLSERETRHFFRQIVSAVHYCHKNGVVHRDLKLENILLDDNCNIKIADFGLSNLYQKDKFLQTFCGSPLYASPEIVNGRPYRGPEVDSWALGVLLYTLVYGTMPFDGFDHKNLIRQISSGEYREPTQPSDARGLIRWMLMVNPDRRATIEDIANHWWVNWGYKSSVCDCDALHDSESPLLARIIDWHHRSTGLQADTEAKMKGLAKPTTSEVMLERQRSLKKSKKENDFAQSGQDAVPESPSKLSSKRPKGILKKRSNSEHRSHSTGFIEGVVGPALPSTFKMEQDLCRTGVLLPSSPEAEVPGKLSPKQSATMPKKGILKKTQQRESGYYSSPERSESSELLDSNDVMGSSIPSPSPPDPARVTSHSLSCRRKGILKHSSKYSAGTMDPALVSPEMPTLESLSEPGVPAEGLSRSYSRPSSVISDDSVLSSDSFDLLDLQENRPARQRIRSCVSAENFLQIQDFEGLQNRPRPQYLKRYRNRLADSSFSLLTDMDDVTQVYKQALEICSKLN
Protocol: (§1) Test Example: Enzyme Activity Inhibition Test of NUAK1/NUAK2 Kinase Inhibitors
(§2) The inhibitory activity of the pyrimidinamine small molecules involved in the present application against NUAK1 and NUAK2 kinases was determined using a kinase activity assay based on the P81 filter paper binding hot-spot technique (Nat Biotechnol. 2011, 29:1039). A brief description is as follows:
(§3) The assay buffer system contained 20 mM Hepes (pH 7.5), 10 mM MgCl2, 1 mM EGTA, 0.01% Brij35 (L23 polyoxyethylene lauryl ether), 0.02 mg/mL BSA (bovine serum albumin), 0.1 mM Na3VO4, 2 mM DTT, and 1% DMSO.
(§4) • 1. A 20 µM substrate solution was prepared with freshly prepared test buffer and CHKtide peptide fragments (Sanchez Y. Science. 1997, 277: 1497-1501) were used as a substrate. • 2. Kinases were added and mixed gently (a final concentration of NUAK1 was 10 nM; and a final concentration of NUAK2 was 50 nM). • 3. Test compounds dissolved in 100% DMSO were each added to the above kinase reaction mixture solution via Acoustic Droplet Ejection (Echo550; nanoliter) and the mixture was incubated for 5 minutes at room temperature. • 4. ^33P-labeled ATP (a ratio of unlabeled ATP to labeled ATP was 25:1 or 2.5:1) was added. • 5. The mixture was incubated for 2 hours at room temperature. • 6. Kinase activity was tested using the P81 filter paper combined with hotspot technology.
(§5) The IC50 values of the test compounds against NUAK1/NUAK2 were calculated according to the above test. For specific results, see Table 1.
(§6) The IC50 values were calculated by using a formula derived from sigmoidal dose-response curve (variable slope): Y = Bottom + (Top−Bottom)/(1+10^(∧)((LogEC50−X)*Slope, [formula] where X is the logarithm of compound concentration, Y is the response (inhibition rate of kinase activity), and Y rises from bottom to top along the sigmoidal curve as the concentration increases. Table 1: IC50 (nM) of Test Compounds of the Present Application against NUAK1/NUAK2

[2] = biological target: T2, NUAK2 (Homo sapiens, UniProt Q9H093); test: as above; type: biochemical; settings: final concentration of NUAK2 50 nM; 20 µM CHKtide peptide substrate; 33P-labeled ATP; 2 hours at room temperature; read-out: IC50 (nM) of Test Compounds against NUAK2
T2 sequence (Q9H093 1-628): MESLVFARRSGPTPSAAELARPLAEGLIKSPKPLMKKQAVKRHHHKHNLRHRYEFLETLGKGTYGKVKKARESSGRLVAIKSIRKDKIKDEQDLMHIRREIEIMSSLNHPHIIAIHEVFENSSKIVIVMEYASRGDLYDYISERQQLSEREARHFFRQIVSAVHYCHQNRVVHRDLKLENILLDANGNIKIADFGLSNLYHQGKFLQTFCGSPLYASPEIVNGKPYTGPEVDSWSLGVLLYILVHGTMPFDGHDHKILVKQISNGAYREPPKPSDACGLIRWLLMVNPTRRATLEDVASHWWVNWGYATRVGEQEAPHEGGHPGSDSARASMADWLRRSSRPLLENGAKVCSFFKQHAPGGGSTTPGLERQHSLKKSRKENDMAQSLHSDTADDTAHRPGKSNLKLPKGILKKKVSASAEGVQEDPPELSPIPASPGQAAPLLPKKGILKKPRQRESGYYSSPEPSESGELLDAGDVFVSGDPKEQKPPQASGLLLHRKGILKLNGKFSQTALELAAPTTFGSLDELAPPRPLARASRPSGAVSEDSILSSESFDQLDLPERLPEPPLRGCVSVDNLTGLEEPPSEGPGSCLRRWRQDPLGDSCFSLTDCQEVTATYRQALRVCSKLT
Protocol: as §1, §2, §3, §4, §5, §6

| SMILES | IC50 [1] [nM] | IC50 [2] [nM] |
| --- | --- | --- |
| CC1(NC(=O)[C@@H]2CC2(F)F)CCN(c2ccnc(Nc3cnn(C4CCNCC4)c3)n2)CC1 [TDM-181163] | 30 | 15 |
| CN1CCN(c2ccc(Nc3nccc(N4CCC(C)(NS(=O)(=O)C5CC5)CC4)n3)cc2)CC1 [TDM-181165, N-(4-methyl-1-(2-((4-(4-methylpiperazin-1-yl)phenyl)amino)pyrimidin-4-yl)piperidin-4-yl)cyclopropanesulfonamide] | 39 | 72 |
| CC1(NS(=O)(=O)C2CC2)CCN(c2ccnc(Nc3cnn(C4CCNCC4)c3)n2)CC1 [TDM-181137] | 71 | 29 |
| CN1CCN(c2ccc(Nc3ncc(Cl)c(N4CCC(C)(NC(=O)[C@@H]5CC5(F)F)CC4)n3)cc2)CC1 [TDM-181174, (S)-N-(1-(5-chloro-2-((4-(4-methylpiperazin-1-yl)phenyl)amino)pyrimidin-4-yl)-4-methylpiperidin-4-yl)-2,2-difluorocyclopropanecarboxamide] | 0.46 | 1.44 |
| CC1(NC(=O)[C@@H]2CC2(F)F)CCN(c2nc(Nc3cnn(C4CCNCC4)c3)ncc2Cl)CC1 | 1.24 | 2.76 |
| CN1CCN(c2ccc(Nc3nccc(N4CCC(C)(NC(=O)[C@@H]5CC5(F)F)CC4)n3)cc2)CC1 [TDM-181164, (S)-2,2-Difluoro-N-(4-methyl-1-(2-((4-(4-methylpiperazin-1-yl)phenyl)amino)pyrimidin-4-yl)piperidin-4-yl)cyclopropane-1-carboxamide] | 6 | 15 |
| CN1CCN(c2ccc(Nc3ncc(Cl)c(N4CCC(C)(NS(=O)(=O)C5CC5)CC4)n3)cc2)CC1 [TDM-181173, N-(1-(5-chloro-2-((4-(4-methylpiperazin-1-yl)phenyl)amino)pyrimidin-4-yl)-4-methylpiperidin-4-yl)cyclopropanesulfonamide] | 1 | 3 |

Continued, values first:

| IC50 [1] [nM] | IC50 [2] [nM] | SMILES |
| --- | --- | --- |
| 69 | – | CN1CCN(c2ccc(Nc3ncc(Cl)c(CN4CCC(C)(NS(=O)(=O)C5CC5)CC4)n3)cc2)CC1 [TDM-181183, N-(1-((5-chloro-2-((4-(4-methylpiperazin-1-yl)phenyl)amino)pyrimidin-4-yl)methyl)-4-methylpiperidin-4-yl)cyclopropanesulfonamide] |
| 959 | – | CC1(NC(=O)[C@@H]2CC2(F)F)CCN(Cc2nc(Nc3cnn(C4CCNCC4)c3)ncc2Cl)CC1 [TDM-181186, (S)-N-(1-((5-chloro-2-((1-(piperidin-4-yl)-1H-pyrazol-4-yl)amino)pyrimidin-4-yl)methyl)-4-methylpiperidin-4-yl)-2,2-difluorocyclopropane-1-carboxamide] |
| 679 | – | CN1CCN(c2ccc(Nc3ncc(Cl)c(CN4CCC(C)(NC(=O)[C@@H]5CC5(F)F)CC4)n3)cc2)CC1 [TDM-181182, (S)-N-(1-((5-chloro-2-((4-(4-methylpiperazin-1-yl)phenyl)amino)pyrimidin-4-yl)methyl)-4-methylpiperidin-4-yl)-2,2-difluorocyclopropane-1-carboxamide] |
| 20 | 13 | COc1cc(N2CCN(C)CC2)ccc1Nc1ncc(Cl)c(N2CCC(C)(NS(=O)(=O)C3CC3)CC2)n1 [TDM-181175, N-(1-(5-chloro-2-((2-methoxy-4-(4-methylpiperazin-1-yl)phenyl)amino)pyrimidin-4-yl)4-methylpiperidin-4-yl)cyclopropanesulfonamide] |
